Test results as given in US7473708B2, “Agents with leukotriene B4-like antiviral (enveloped RNA) activities” (priority 1996, dated 2009).
“Also recorded” adds a separate entry of the source.

Columns and labels:
[1] = test system: cell cultures of Examples I and II; assay: LTB4 cytotoxicity, trypan blue dye exclusion test; format: cell-based, human; settings: concentrations up to 30 nM
Experimental: In cell cultures described in Examples I and II, the cytotoxic effect of LTB4 was assessed by the trypan blue dye exclusion test at concentrations up to 30 nM. […] Cell viability was assessed by the trypan blue exclusion test; values (from 1 experiment representative of 3) represent the mean cell viability in cell cultures (n=24).

EBV [2] = assay: EBV-induced tumor formation in SCID mice given human PBL
[3] = test system: influenza virus (strain A/Pr/8/34); assay: Influenza infection in lungs of mice; format: in vivo; settings: LTB4 1, 10 and 100 ng/dose intranasal, days 1 to 5, day 6
Experimental: BALB/c mice (6-8 week old) were infected (n=6/group) by delivering 10 PFU of influenza virus (strain A/Pr/8/34) in the nasal cavity. On days 1 to 5 post-infection, mice were treated intranasally with a placebo or with varying doses of LTB4 (1, 10 and 100 ng/dose). On the 6th day post-infection, all mice were sacrificed and influenza viral loads in lungs were determined using the MDCK cell line.

HIV-1 strain 89.6 = assay: HIV ex vivo model, human tonsillar tissue, p24 release; format: cell-based; settings: tonsil blocks, LTB4 0.01, 0.1 and 1 μM
Text: An ex vivo model that retains the cellular organization found in normal human lymphoid tissue was used. The selected lymphoid tissues were tonsils. […] Such an ex vivo model is used to study HIV pathogenesis and potency of antiviral agents such as AZT (Zidovudine) by many laboratories.
Human tonsillar tissues from two different individuals were removed during routine tonsillectomy and were received within five hours of excision. The tonsils were washed thoroughly with medium supplemented with antibiotics and then sectioned into 2-3 mm blocks. These tissue blocks were placed in culture medium at the air-liquid interface on the top surface of collagen sponge gels and were pretreated for 10 min with the indicated concentrations of LTB4 (0.01, 0.1 and 1 μM). Next, HIV-1 particles (400 TCID50 of HIV-1 strain 89.6) were applied at the top of each tissue block. The next day, the culture medium was completely removed and replaced with fresh medium supplemented with a final concentration of LTB4 (0.01, 0.1 and 1 μM). This step is necessary in order to remove unadsorbed and uninternalized virus particles. Productive HIV-1 infection was assessed every 3 to 4 days by measuring p24 in the culture medium using a viral core p24 antigen enzyme-linked immunosorbent assay. […]

HIV-1IIIB = assay: Reverse transcriptase activity in HIV-1-infected PBMC; format: cell-based, human; settings: LTB4 in culture media (100 nM elsewhere in the source), two weeks of culture
Experimental: PBMC were resuspended at a density of 10^6 cells/ml in culture medium (RPMI-1640 supplemented with 10% FBS), and cultured in the presence of 3 μg/ml PHA-P (Sigma, St.Louis, Mo.) and 30 U/ml of recombinant human IL-2 for 2 to 3 days at 37° C. under a 5% CO2 atmosphere. PHA-stimulated PBMC were resuspended at 1×10^6 cells/ml and were infected with HIV-1IIIB (various multiplicity of infection: number of infectious virus particles/target cell) in the absence or the presence of increasing concentrations of LTB4 (0, 30, 100, and 200 nM). The culture media were changed twice a week and appropriate amounts of LTB4 were added at every medium change. […] Virus replication was monitored either by reverse transcriptase or p24 assays. […]
Enzymatic activity was measured with 50 μl of cell-free supernatant to which 10 μl of a solution A (5 mM dithiothreitol, 50 mM KCl, 0.05% Triton X-100) and 40 μl of a solution B (5 mM MgCl2, […], 0.04 mg of poly(rA)-oligo(dT)12-18, […] [^3H]TTP (40 to 70 Ci/mmol) had been added. After incubation for 1 hour at 37° C., samples were precipitated with one volume of a solution containing 0.15% pyrophosphate and 1.66% trichloroacetic acid prior filtration onto glass fiber filters by using a cell harvester system. The filters were dried and radioactivity was measured in a liquid scintillation counter (1205/1204 BS Beta-plate; Wallac Oy, Turku, Finland). […]

EBV [4] = assay: Synthesis of EBV particles in B95-8 cells; settings: for inhibition of production of EBV particles (decrease of EBNA antigen positive cells): 14 days
Experimental: In order to evaluate the effects of LTB4 on the production of newly synthesized viral particles, B95-8 cells, in which EBV replicates, was cultured in the presence or absence of LTB4 (to the concentrations indicated in FIG. 3 at days 0, 5 and 10) during 14 days. The cells were grown in RPMI-1640 medium supplemented with 10% heat inactivated fetal bovine serum (FBS) . […] Viral titers were measured by ACIF test on PBMC and expressed in transforming units per ml (TFU/ml). PBMC were then infected with these different EBV preparations and the presence of EBNA was assessed by immunofluorescence (ACIF test).

HSV-1 strain E-377 = assay: HSV-1 infection in vivo, hairless mice
HSV-1 = assay: Synthesis of HSV-1 particles in Vero cells; settings: concentration not stated (summary)
HIV (93US151) = assay: HIV infection in vivo, SCID mice reconstituted with human PBMC
[5] = test system: murine CMV (Smith strain); assay: CMV viral load in infected mice (plaque assay)
Experimental: Six week old BALB/c mice were infected by intravenous injection with 10^4 plaque forming units (PFU) of murine CMV (Smith strain). Mice were divided into two groups: the first group received a placebo while the second group was treated with 25 ng of LTB4, administered intravenously once a day starting on the day of infection. After 12 days of treatment, mice were sacrificed and the lungs and salivary glands harvested. The organs were homogenized, in 0.5 ml of culture medium, to liberate intracellular viral particles. After centrifugation, the cell free supernatants were tested for the presence of CMV particles by standard plaque assay technique. Briefly, serially diluted supernatants were added to a monolayer of mouse embryonic fibroblast cells (highly susceptible to CMV infection) for 1 hour at 37° C. after which the nonadsorbed virus were removed and the monolayer overlaid with 1.5% methylcellulose. After a 5-day incubation, the monolayers were fixed with formaldehyde and stained with violet crystal. The number of plaques, which represents areas of infection equivalent to one viral particle, were counted and the CMV titers in the lungs and salivary glands determined.

[6] = EBV-infected, LTB4 i.p. 10 then 5 μg/mouse, day 42
[7] = LTB4 10 μg i.p. days 0, 1, 3, 5, 7, 9
[8] = 25 ng LTB4 i.v. once a day, 12 days

SMILES: CCCCC/C=C\C[C@@H](O)/C=C/C=C/C=C\[C@@H](O)CCCC(=O)O [LTB4, 5S,12R-dihydroxy-6,8,10,14 (Z,E,E,Z)-eicosatetraenoic acid]
- cytotoxic effect / cell viability [1]: no direct cytotoxic effect
- Splenomegaly: Enlarged (mice affected / mice in group) (EBV [2]; [6]): 6/9
- Splenomegaly: Normal (mice affected / mice in group) (EBV [2]; [6]): 1/9
- Splenomegaly: Very enlarged (mice affected / mice in group) (EBV [2]; [6]): 2/9
- Tumor size 800-1500 mm^3 (mice affected / mice in group) (EBV [2]; [6]): 3/9
- Tumor size <800 mm^3 (mice affected / mice in group) (EBV [2]; [6]): 6/9
- Tumor size >1500 mm^3 (mice affected / mice in group) (EBV [2]; [6]): 0/9
- tumor growth induced by EBV (EBV [2]; SCID mice, 42 days): reduces tumor growth induced by EBV
- behaviour and survival of uninfected mice treated with LTB4 alone (EBV [2]; uninfected SCID mice, LTB4 i.p., 42-day period): behaved normally and survived throughout the 42-day period
- influenza titers in the lungs versus placebo [3]: significantly decreased; also recorded: reduced
- inhibition of the replicative cycle of HIV-1 (p24 release) (HIV-1 strain 89.6): more than 75%
- reduction of reverse transcriptase (viral) activity (HIV-1IIIB): more than 70%
- inhibition of production of EBV particles (decrease of EBNA antigen positive cells) (EBV [4]; 30 nM LTB4, B95-8 cells): 70%
- inhibition of production of EBV particles (decrease of EBNA antigen positive cells) (EBV [4]; 100 nM LTB4, B95-8 cells): 85%
- inhibition of formation of new EBV particles (EBV [4]; B95-8 cells, concentration not stated (summary)): > 80%
- course of skin lesions (HSV-1 strain E-377; HSV-1-infected hairless mice, LTB4 i.p.): regressed from day 8; also recorded: smaller and disappeared more rapidly
- Survival at day 14 (HSV-1 strain E-377; HSV-1-infected, LTB4 10 μg i.p.): 100%
- Infection-associated symptoms score, Day 4 (HSV-1 strain E-377; [7]): 0
- Infection-associated symptoms score, Day 6 (HSV-1 strain E-377; [7]): 0
- Infection-associated symptoms score, Day 8 (HSV-1 strain E-377; [7]): 0
- Infection-associated symptoms score, Day 10 (HSV-1 strain E-377; [7]): 0
- Size of infected skin lesions, Day 4 (HSV-1 strain E-377; [7]): ≤ 0.5 cm
- Size of infected skin lesions, Day 6 (HSV-1 strain E-377; [7]): 1-3 cm
- Size of infected skin lesions, Day 8 (HSV-1 strain E-377; [7]): 1-3 cm
- Size of infected skin lesions, Day 10 (HSV-1 strain E-377; [7]): ≤ 0.2 cm
- lesions smaller than those of HSV-1-infected untreated Group 2 (HSV-1 strain E-377; lesions developed from days 0 to 4): ~80%
- infection-associated symptoms and general status (HSV-1 strain E-377; throughout the experiment): posterior limb inflammation and skinniness were not observed
- inhibition of formation of new HSV-1 particles (HSV-1): 75%
- percentage of CD4+ T cell survival versus placebo (HIV (93US151); LTB4 1, 10 or 100 ng/mouse i.p. once a day, day 14 P.I.): significantly increased
- HIV plasma viral loads versus placebo (HIV (93US151); LTB4 i.p. once a day, days 7 and 14 P.I.): reduced
- reduction in the CMV viral load in the lungs versus placebo [5, 8]: 77%
- reduction in the CMV viral load in the salivary glands versus placebo [5, 8]: 70%
- CMV viral load versus placebo ([5]; infected mice): reduced
